Tests used:
[1] = biological target: T1, Phosphopantetheine adenylyltransferase (Escherichia coli (strain K12), UniProt P0A6I6); test: High-Throughput Screening Assay (Forward Direction Assay)
Method: (§1) PPAT screening assay (forward-direction assay) were performed in clear 384 well plates containing in each well either 1-uL DMSO, 1 uL of variable concentrations of test compounds solvated in DMSO or 1 uL of a 100-uM solution of a dipeptide inhibitor of PPAT in DMSO which serves as the fully inhibit control.

[2] = biological target: Phosphopantetheine adenylyltransferase (Enterococcus faecalis (strain ATCC 700802 / V583), UniProt Q831P9); test: as above
Method: as §1

[3] = biological target: T1, Phosphopantetheine adenylyltransferase; test: Reverse PPAT Assay
Method: The reverse assay was performed in polyproplene 96-well plates containing in each well either 1 uL DMSO, 1 µL of variable concentrations of test compounds solvated in DMSO or 1 µL of a 100-uM solution of a dipeptide inhibitor of PPAT in DMSO which serves as control.

Sequence of Phosphopantetheine adenylyltransferase (Enterococcus faecalis (strain ATCC 700802 / V583), UniProt Q831P9) (Q831P9 whole entry): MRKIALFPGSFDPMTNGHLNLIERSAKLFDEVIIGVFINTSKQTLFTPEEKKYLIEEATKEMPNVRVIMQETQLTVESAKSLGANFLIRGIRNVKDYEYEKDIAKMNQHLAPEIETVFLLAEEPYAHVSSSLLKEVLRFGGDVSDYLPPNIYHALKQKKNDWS
T1 sequence (P0A6I6 whole entry): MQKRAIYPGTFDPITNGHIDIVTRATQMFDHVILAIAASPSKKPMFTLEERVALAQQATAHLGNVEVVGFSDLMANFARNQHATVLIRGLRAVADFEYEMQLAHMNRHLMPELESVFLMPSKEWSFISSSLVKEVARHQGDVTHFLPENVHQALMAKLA

Compound | IC50 [1] | IC50 [2] | IC50 [3]
O=C(O)c1cc2nc3cc(C(F)(F)F)ccc3c(=O)n2[nH]1 [6-substituted pyrazoloquinolone, 20] | 54 µM | > 167 µM | 200 µM
Nc1ccc2c(=O)n3[nH]c(C(=O)O)cc3nc2c1 [6-substituted pyrazoloquinolone, 21] | 121 µM | 100 µM | –
O=C(O)c1cc2nc3cc(Br)ccc3c(=O)n2[nH]1 [6-substituted pyrazoloquinolone, 22] | 124 µM | > 167 µM | > 125 µM
O=C(O)c1cc2nc3ccccc3c(=O)n2[nH]1 [7-substituted pyrazoloquinolone, 6] | 253 µM | > 167 µM | > 230 µM
O=C(O)c1cc2nc3ccc(F)cc3c(=O)n2[nH]1 [7-substituted pyrazoloquinolone, 9] | 103 µM | > 167 µM | –
O=C(O)c1cc2nc3ccc(Br)cc3c(=O)n2[nH]1 [7-substituted pyrazoloquinolone, 10] | 6.2 µM | 209 µM | 22 µM
C[S+]([O-])c1ccc2nc3cc(C(=O)O)[nH]n3c(=O)c2c1 (centres undefined) [7-substituted pyrazoloquinolone, 13] | 166 µM | 20 µM | –
CS(=O)(=O)c1ccc2nc3cc(C(=O)O)[nH]n3c(=O)c2c1 [7-substituted pyrazoloquinolone, 14] | 92 µM | – | –
CC(C)Sc1ccc2nc3cc(C(=O)O)[nH]n3c(=O)c2c1 [7-substituted pyrazoloquinolone, 15] | 14 µM | 249 µM | 5 µM
CN(C)c1ccc2nc3cc(C(=O)O)[nH]n3c(=O)c2c1 [7-substituted pyrazoloquinolone, 16] | 49 µM | 157 µM | 7.1 µM

Next, values leading:

IC50 [1] | IC50 [2] | IC50 [3] | Compound
106 µM | > 167 µM | – | Cc1c(C(=O)O)[nH]n2c(=O)c3ccc(Cl)cc3nc12 [3-substituted pyrazoloquinolone, 24]
160 µM | – | – | Cn1c2ccc(Cl)cc2c(=O)n2nc(C(=O)O)cc12 [4-substituted pyrazoloquinolone, 18]
15 µM | > 167 µM | – | Cc1ccc2c(=O)n3[nH]c(C(=O)O)cc3nc2c1 [6-substituted pyrazoloquinolone, 19]
49 µM | 212 µM | 93 µM | O=C(O)c1cc2nc3cc(Cl)ccc3c(=O)n2[nH]1 [6-substituted pyrazoloquinolone, 23]
244 µM | – | – | Cc1ccc2nc3cc(C(=O)O)[nH]n3c(=O)c2c1 [7-substituted pyrazoloquinolone, 7]
17 µM | > 75 µM | – | O=C(O)c1cc2nc3ccc(Cl)cc3c(=O)n2[nH]1 [7-substituted pyrazoloquinolone, 8]
5.1 µM | > 137 µM | 11 µM | O=C(O)c1cc2nc3ccc(I)cc3c(=O)n2[nH]1 [7-substituted pyrazoloquinolone, 11]
13 µM | > 65 µM | 8.8 µM | CSc1ccc2nc3cc(C(=O)O)[nH]n3c(=O)c2c1 [7-substituted pyrazoloquinolone, 12]
> 150 µM | > 167 µM | – | COc1ccc2nc3cc(C(=O)O)[nH]n3c(=O)c2c1 [7-substituted pyrazoloquinolone, 17]

— BindingDB's records for doi:10.1111/j.1747-0285.2010.00957.x (Pfizer, 2010)
